Tests used:
[1] = tested on: CFTR-ΔF508; assay: Transepithelial Cl^− current in primary human CFTR null airway epithelia (CFTR Q493X/S912X) transduced with Ad-CFTR-ΔF508; assay type: cell-based; details: CFTR null epithelia (Q493X/S912X) expressing Ad-CFTR-ΔF508, pretreated with oligonucleotide
Procedure: Transepithelial Cl^− current measurements were made in Ussing chambers about 2 weeks post-seeding (Itani, 0. A. et al. Human cystic fibrosis airway epithelia have reduced Cl− conductance but not increased Na+ conductance. Proc. Natl. Acad. Sci. USA 108, 10260-10265 (2011)). Briefly, primary cultures were mounted in a modified Ussing chamber (Jim's Instruments, 8 wells per instrument). Transepithelial Cl^− current was measured under short-circuit current conditions. Cultures were incubated overnight with 10 μM forskolin and 100 μM 3-isobutyl-1-methylxanthine (IBMX). After measuring baseline current, the transepithelial current (It) response to sequential apical addition of 100 μM amiloride (Amil), 100 μM 4,4′-diisothiocyanoto-stilbene-2,2′-disulfonic acid (DIDS), 4.8 mM [Cl^−], 10 μM forskolin and 100 μM 3-isobutyl-1-methylxanthine (IBMX), and 100 μM GlyH-101 was measured. Studies were conducted with a Cl^− concentration gradient containing 135 mM NaCl, 1.2 mM MgCl2, 1.2 mM CaCl2, 2.4 mM K2PO4, 0.6 mM KH2PO4, 5 mM dextrose, and 5 mM Hepes (pH 7.4) on the basolateral surface, and gluconate substituted for Cl^− on the apical side. […]

[2] = tested on: CFTR; assay: Transepithelial conductance and current (Ussing chamber) in polarized Calu-3 epithelia; assay type: cell-based; details: F&I stimulation, GlyH-101 inhibition
Procedure: Freshly dissociated human airway epithelial cells or immortalized cell lines were transfected in pre-coated 96 well plates (Costar) or Transwell™ Permeable Supports (0.33 cm^2 0.4 μm polyester membrane, Costar 3470). Lipofectamine™ RNAiMAX (Invitrogen) was used as a reverse transfection reagent. Pre-coated (with human placental collagen Type IV, Sigma) substrates were incubated with the transfection mix comprising of Opti-MEM (Invitrogen), oligonucleotide (Integrated DNA Technologies) and Lipofectamine™ RNAiMAX (Invitrogen). 15-20 minutes later, 200,000 freshly dissociated cells suspended in DMEM/F-12 were added to each well/insert. […]
Transepithelial Cl^− current measurements were made in Ussing chambers about 2 weeks post-seeding (Itani, 0. A. et al. Human cystic fibrosis airway epithelia have reduced Cl− conductance but not increased Na+ conductance. Proc. Natl. Acad. Sci. USA 108, 10260-10265 (2011)). […] Transepithelial Cl^− current was measured under short-circuit current conditions. […] After measuring baseline current, the transepithelial current (It) response to sequential apical addition of 100 μM amiloride (Amil), 100 μM 4,4′-diisothiocyanoto-stilbene-2,2′-disulfonic acid (DIDS), 4.8 mM [Cl^−], 10 μM forskolin and 100 μM 3-isobutyl-1-methylxanthine (IBMX), and 100 μM GlyH-101 was measured. […]

Row | Substance | CFTR-mediated Cl^− current [1] | CFTR-mediated conductance (Gt) and current (It) [2]
1 | SIN3A DsiRNA: Dicer-substrate siRNA against SIN3A, sense SEQ ID NO: 6, antisense SEQ ID NO: 7 (sense GCGAUACAUGAAUUCAGAUACUACC; antisense GGUAGUAUCUGAAUUCAUGUAUCGCUC; chemistry not given here) | restored | increased
2 | miR-138 mimic: synthetic modified RNA duplex, sense SEQ ID NO: 4, antisense SEQ ID NO: 5, showing miR-138-like activity | restored | increased

Source: patent publication US20150045410A1, “METHOD OF REGULATING CFTR EXPRESSION AND PROCESSING” (University of Iowa Research Foundation, priority 2012, published 2015)
